The values that follow are results of earlier work, collected in patent US11135586B2, “Fluorinated pickering emulsion” (The Board of Trustees of the Leland Stanford Junior …, priority 2014, dated 2021).

In the case of `O=C1OC2(c3ccc(O)cc3Oc3cc(O)ccc32)c2ccccc21` [fluorescein], the “Time without leakage in drops stabilized by surfactants” value is listed as “at least 36 hours”.
